From patent US20170071944A1, “MODULATORS OF TOLL-LIKE RECEPTORS FOR THE TREATMENT OF HIV” (Gilead Sciences, Inc., priority 2015, published 2017)

Tested on: PBMC cultures from HIV-1 infected subjects on cART
Assay: Induced cytokines and chemokines in PBMC cultures from HIV-1 infected subjects on cART (multiplexed Luminex)
Format: cell-based, human
Details: day 2, geometric mean, 4 subjects
Method: To further characterize the immune modulatory effect of TLR8 agonists in cells from HIV-infected subjects, the production of secreted cytokines and chemokines was measured in PBMCs from 4 HIV-infected subjects on suppressive cART (anonymized participant IDs 180-183). PBMCs were purified, as described in Example 121, and immediately added to tissue culture plates pre-equilibrated at 37° C. with media containing DMSO (vehicle control) or with the TLR8 modulating compound Example 15 at concentrations ranging from 1.0 nM to 10.0 μM. On day 2 after treatment, cell-free culture supernatants were collected and frozen at −80 C for subsequent analysis. Frozen supernatants were thawed at room temperature, and the indicated cytokines and chemokines were quantified with a custom multiplexed xMAP Luminex® assay following the manufacturer's instructions (Thermo Fisher Scientific Inc., Grand Island, N.Y., custom-designed kit).
Data are expressed as geometric mean cytokine values (pg/ml) obtained from 4 subjects' PBMCs. Geometric mean fold-activation from three independent incubation samples for each condition. Fold (fold-activation) is calculated as a ratio of the concentration of cytokine detected in cell culture supernatants from agonist treated samples relative to DMSO treated samples

CCCC[C@H](CO)Nc1nc(N)nc2cccnc12 [Example 15]
GRO-α (Ex 15 1 nM): 31 pg/mL | GRO-α Fold vs DMSO (Ex 15 1 nM): 1 fold | Granzyme B (Ex 15 1 nM): 80 pg/mL | Granzyme B Fold vs DMSO (Ex 15 1 nM): <1 fold | I-TAC (Ex 15 1 nM): 82 pg/mL | I-TAC Fold vs DMSO (Ex 15 1 nM): 2 fold | IFN-α (Ex 15 1 nM): 4 pg/mL | IFN-α Fold vs DMSO (Ex 15 1 nM): 2 fold | IFN-γ (Ex 15 1 nM): 50 pg/mL | IFN-γ Fold vs DMSO (Ex 15 1 nM): 2 fold | IL-6 pg/ml (Ex 15 1 nM): 61 pg/mL | IL-8 pg/ml (Ex 15 1 nM): 624 pg/mL | IL-10 pg/ml (Ex 15 1 nM): 25 pg/mL | IL-18 pg/ml (Ex 15 1 nM): 23 pg/mL | IL-23 pg/ml (Ex 15 1 nM): 131 pg/mL | IL-1RA (Ex 15 1 nM): 11610 pg/mL | IL-1RA Fold vs DMSO (Ex 15 1 nM): 3 fold | IL-1β (Ex 15 1 nM): 5 pg/mL | IL-1β Fold vs DMSO (Ex 15 1 nM): 2 fold | IL-6 Fold vs DMSO (Ex 15 1 nM): 1 fold | IL-8 Fold vs DMSO (Ex 15 1 nM): 2 fold | IL-10 Fold vs DMSO (Ex 15 1 nM): 1 fold | IL-18 Fold vs DMSO (Ex 15 1 nM): 1 fold | IL-23 Fold vs DMSO (Ex 15 1 nM): 2 fold | IP-10 pg/ml (Ex 15 1 nM): 696 pg/mL | IP-10 Fold vs DMSO (Ex 15 1 nM): 3 fold | MCP-1 pg/ml (Ex 15 1 nM): 180 pg/mL | MCP-1 Fold vs DMSO (Ex 15 1 nM): 3 fold | MIP-1α (Ex 15 1 nM): 251 pg/mL | MIP-1α Fold vs DMSO (Ex 15 1 nM): 5 fold | MIP-1β (Ex 15 1 nM): 2189 pg/mL | MIP-1β Fold vs DMSO (Ex 15 1 nM): 2 fold | MIP-3α (Ex 15 1 nM): 23 pg/mL | MIP-3α Fold vs DMSO (Ex 15 1 nM): 1 fold | MMP-1 pg/ml (Ex 15 1 nM): 119 pg/mL | MMP-1 Fold vs DMSO (Ex 15 1 nM): 1 fold | GRO-α (Ex 15 10 nM): 29 pg/mL | GRO-α Fold vs DMSO (Ex 15 10 nM): 1 fold | Granzyme B (Ex 15 10 nM): 74 pg/mL | Granzyme B Fold vs DMSO (Ex 15 10 nM): <1 fold | I-TAC (Ex 15 10 nM): 70 pg/mL | I-TAC Fold vs DMSO (Ex 15 10 nM): 1 fold | IFN-α (Ex 15 10 nM): 4 pg/mL | IFN-α Fold vs DMSO (Ex 15 10 nM): 2 fold | IFN-γ (Ex 15 10 nM): 48 pg/mL | IFN-γ Fold vs DMSO (Ex 15 10 nM): 2 fold | IL-6 pg/ml (Ex 15 10 nM): 61 pg/mL | IL-8 pg/ml (Ex 15 10 nM): 333 pg/mL | IL-10 pg/ml (Ex 15 10 nM): 21 pg/mL | IL-18 pg/ml (Ex 15 10 nM): 26 pg/mL | IL-23 pg/ml (Ex 15 10 nM): 86 pg/mL | IL-1RA (Ex 15 10 nM): 5309 pg/mL | IL-1RA Fold vs DMSO (Ex 15 10 nM): 1 fold | IL-1β (Ex 15 10 nM): 2 pg/mL | IL-1β Fold vs DMSO (Ex 15 10 nM): 1 fold | IL-6 Fold vs DMSO (Ex 15 10 nM): 1 fold | IL-8 Fold vs DMSO (Ex 15 10 nM): 1 fold | IL-10 Fold vs DMSO (Ex 15 10 nM): 1 fold | IL-18 Fold vs DMSO (Ex 15 10 nM): 2 fold | IL-23 Fold vs DMSO (Ex 15 10 nM): 1 fold | IP-10 pg/ml (Ex 15 10 nM): 259 pg/mL | IP-10 Fold vs DMSO (Ex 15 10 nM): 1 fold | MCP-1 pg/ml (Ex 15 10 nM): 91 pg/mL | MCP-1 Fold vs DMSO (Ex 15 10 nM): 1 fold | MIP-1α (Ex 15 10 nM): 70 pg/mL | MIP-1α Fold vs DMSO (Ex 15 10 nM): 1 fold | MIP-1β (Ex 15 10 nM): 1302 pg/mL | MIP-1β Fold vs DMSO (Ex 15 10 nM): 1 fold | MIP-3α (Ex 15 10 nM): 23 pg/mL | MIP-3α Fold vs DMSO (Ex 15 10 nM): 1 fold | MMP-1 pg/ml (Ex 15 10 nM): 104 pg/mL | MMP-1 Fold vs DMSO (Ex 15 10 nM): 1 fold | TNF-α (Ex 15 10 nM): 35 pg/mL | TNF-α Fold vs DMSO (Ex 15 10 nM): 2 fold | GRO-α (Ex 15 100 nM): 469 pg/mL | GRO-α Fold vs DMSO (Ex 15 100 nM): 20 fold | Granzyme B (Ex 15 100 nM): 79 pg/mL | Granzyme B Fold vs DMSO (Ex 15 100 nM): <1 fold | I-TAC (Ex 15 100 nM): 32 pg/mL | I-TAC Fold vs DMSO (Ex 15 100 nM): 1 fold | IFN-α (Ex 15 100 nM): 3 pg/mL | IFN-α Fold vs DMSO (Ex 15 100 nM): 1 fold | IFN-γ (Ex 15 100 nM): 49 pg/mL | IFN-γ Fold vs DMSO (Ex 15 100 nM): 2 fold | IL-6 pg/ml (Ex 15 100 nM): 4424 pg/mL | IL-8 pg/ml (Ex 15 100 nM): 2561 pg/mL | IL-10 pg/ml (Ex 15 100 nM): 2459 pg/mL | IL-18 pg/ml (Ex 15 100 nM): 20 pg/mL | IL-23 pg/ml (Ex 15 100 nM): 130 pg/mL | IL-1RA (Ex 15 100 nM): 41213 pg/mL | IL-1RA Fold vs DMSO (Ex 15 100 nM): 12 fold | IL-1β (Ex 15 100 nM): 135 pg/mL | IL-1β Fold vs DMSO (Ex 15 100 nM): 45 fold | IL-6 Fold vs DMSO (Ex 15 100 nM): 57 fold | IL-8 Fold vs DMSO (Ex 15 100 nM): 8 fold | IL-10 Fold vs DMSO (Ex 15 100 nM): 145 fold | IL-12p70 pg/ml (Ex 15 100 nM): 6 pg/mL | IL-12p70 Fold vs DMSO (Ex 15 100 nM): 2 fold | IL-18 Fold vs DMSO (Ex 15 100 nM): 1 fold | IL-23 Fold vs DMSO (Ex 15 100 nM): 2 fold | IP-10 pg/ml (Ex 15 100 nM): 226 pg/mL | IP-10 Fold vs DMSO (Ex 15 100 nM): 1 fold | MCP-1 pg/ml (Ex 15 100 nM): 2162 pg/mL | MCP-1 Fold vs DMSO (Ex 15 100 nM): 33 fold | MIP-1α (Ex 15 100 nM): 172 pg/mL | MIP-1α Fold vs DMSO (Ex 15 100 nM): 3 fold | MIP-1β (Ex 15 100 nM): 1302 pg/mL | MIP-1β Fold vs DMSO (Ex 15 100 nM): 1 fold | MIP-3α (Ex 15 100 nM): 28 pg/mL | MIP-3α Fold vs DMSO (Ex 15 100 nM): 1 fold | MMP-1 pg/ml (Ex 15 100 nM): 198 pg/mL | MMP-1 Fold vs DMSO (Ex 15 100 nM): 2 fold | TNF-α (Ex 15 100 nM): 132 pg/mL | TNF-α Fold vs DMSO (Ex 15 100 nM): 6 fold | GRO-α (Ex 15 1000 nM): 413 pg/mL | GRO-α Fold vs DMSO (Ex 15 1000 nM): 18 fold | Granzyme B (Ex 15 1000 nM): 878 pg/mL | Granzyme B Fold vs DMSO (Ex 15 1000 nM): 4 fold | I-TAC (Ex 15 1000 nM): 105 pg/mL
